What is called IC50 is the concentration at which inhibition is half-maximal.

SMILES strings stand for the structures.

What all share (type): biochemical
Assay [1] concerns the target T1, KRAS G12C (amino acids 1-169) (Homo sapiens, UniProt P01116, G12C).
T1 construct: made in house; host or cells: E. coli
The experiment in a line: SOS-catalyzed nucleotide exchange assay (Procedure B, BODIPY FL GDP displacement), KRAS G12C. Particulars: read-out: KRAS G12C GNE IC50. As for the experimental part:
(§1) Procedure for SOS-Catalyzed Nucleotide Exchange Assay for KRAS-G12C/D/V/WT (Procedure B)
(§2) Recombinant KRAS G12C (amino acids 1-169, SEQ ID NO:9), KRAS G12D (amino acids 1-169, SEQ ID NO: 10), KRAS G12V (amino acids 1-169, SEQ ID NO: 11), KRAS WT (amino acids 1-169, SEQ ID NO:12) and SOS1 (amino acids 564-1049, SEQ ID NO: 13) proteins were expressed in E. coli and purified by affinity chromatography. To prepare each BODIPY™ FL GDP-bound KRAS protein, 50 μM KRAS proteins were incubated with 0.5 mM BODIPY™ FL GDP (Invitrogen, G22360) in a loading buffer (20 mM Tris-HCl pH 7.5, 50 mM NaCl, 1 mM DTT and 2.5 mM EDTA) for 1 hour on ice. After the incubation, MgCl2 was added to a final concentration of 10 mM, followed by an incubation at room temperature for 30 minutes. The mixtures were allowed to pass through a NAP-5 column to remove free nucleotides and purified BODIPY™ FL GDP-bound KRAS G12C, G12D, G12V and WT proteins were used for compound evaluation.
(§3) The inhibitory activity of compounds on recombinant KRAS is measured by the displacement of the bound BODIPY™ GDP. Specifically, 2.5 nM of each BODIPY™ FL GDP-bound KRAS complex was incubated with various concentrations of compound in a reaction buffer (20 mM Tris-HCl pH 7.5, 100 mM NaCl, 1 mM MgCl2, 2 mM DTT, 0.1% Tween 20) at 25° C. for 1 hour. After the incubation, recombinant SOS1 and GMPPNP (Jena Bioscience GmbH, NU-401) were added and incubated at room temperature for 30 minutes to proceed SOS1-dependent GDP-GTP exchange reaction on KRAS. Displacement of BODIPY™ FL GDP by Guanosine-5′-[(β,γ)-imido]triphosphate, Tetralithium salt (GMPPNP) was measured by calculating the ratio of fluorescence intensities of BODIPY™ FL before and after the exchange reaction. Percent Inhibition was calculated by setting the fluorescence ratio from the reaction without test compound (DMSO control) and the fluorescence ratio from the reaction without SOS1 and GMPPNP as 0% and 100% inhibition, respectively. Dose response curves were analyzed using a 4-parameter logistic model to calculate IC50 values.

For assay [2], the target named is T2, KRAS WT (amino acids 1-169) (Homo sapiens, UniProt P01116).
T2 construct: made in house; host or cells: E. coli
T2 sequence (P01116 with tags, fused parts or gaps isoform P01116-2): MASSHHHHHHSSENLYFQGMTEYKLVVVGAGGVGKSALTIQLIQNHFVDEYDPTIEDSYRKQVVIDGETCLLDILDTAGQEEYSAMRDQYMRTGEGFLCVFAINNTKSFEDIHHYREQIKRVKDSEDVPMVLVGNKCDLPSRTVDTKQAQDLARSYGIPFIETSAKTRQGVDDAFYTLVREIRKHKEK
The experiment in a line: SOS-catalyzed nucleotide exchange assay (Procedure B, BODIPY FL GDP displacement), KRAS WT. Particulars: read-out: KRAS WT GNE IC50. As for the experimental part: as §1, §2, §3

The target in assay [3] is T3, KRAS G12V (amino acids 1-169) (Homo sapiens, UniProt P01116, G12V).
T3 construct: made in house; host or cells: E. coli
T3 sequence (P01116 with tags, fused parts or gaps isoform P01116-2 G12V): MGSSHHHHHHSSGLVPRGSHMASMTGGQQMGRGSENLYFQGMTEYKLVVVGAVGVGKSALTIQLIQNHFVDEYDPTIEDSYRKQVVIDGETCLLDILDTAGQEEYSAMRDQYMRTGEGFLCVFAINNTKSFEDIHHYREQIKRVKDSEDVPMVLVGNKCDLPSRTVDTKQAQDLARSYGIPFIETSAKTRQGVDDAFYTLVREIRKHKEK
The experiment in a line: SOS-catalyzed nucleotide exchange assay (Procedure B, BODIPY FL GDP displacement), KRAS G12V. The conditions noted are these: read-out: KRAS G12V GNE IC50. As for the experimental part:
as §1, §2, §3

In assay [4] the target is T4, KRAS G12D (amino acids 1-169) (Homo sapiens, UniProt P01116, G12D).
T4 construct: made in house; host or cells: E. coli
T4 sequence (P01116 with tags, fused parts or gaps isoform P01116-2 G12D): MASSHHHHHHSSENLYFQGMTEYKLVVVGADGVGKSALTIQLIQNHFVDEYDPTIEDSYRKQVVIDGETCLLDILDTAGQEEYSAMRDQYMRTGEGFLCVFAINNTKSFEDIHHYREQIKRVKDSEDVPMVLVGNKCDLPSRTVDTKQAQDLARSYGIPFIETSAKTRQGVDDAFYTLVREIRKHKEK
The assay is described as follows: SOS-catalyzed nucleotide exchange assay (Procedure B, BODIPY FL GDP displacement), KRAS G12D. The conditions noted are these: read-out: KRAS G12D GNE IC50. The method, then:
as §1, §2, §3

T1 sequence (P01116 with tags, fused parts or gaps isoform P01116-2 G12C): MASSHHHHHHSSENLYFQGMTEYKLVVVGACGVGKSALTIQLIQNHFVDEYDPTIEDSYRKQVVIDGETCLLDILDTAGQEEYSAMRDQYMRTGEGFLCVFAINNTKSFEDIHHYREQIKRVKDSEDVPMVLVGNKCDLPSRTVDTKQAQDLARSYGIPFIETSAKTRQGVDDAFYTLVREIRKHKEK

For the compound `C[C@@]1(O)COCCN(c2nc(OC[C@@]34CCCN3C[C@H](F)C4)nc3sc4c(-c5c6c(cc7[nH]ncc57)CCC6C5CC5)nccc4c23)C1` (stereo partly drawn) [Ex-104, (6S)-4-(8-(5-cyclopropyl-1,5,6,7-tetrahydrocyclopenta[f]in-dazol-4-yl)-2-(((2R,7aS)-2-fluorotetrahydro-1H-pyrrolizin-7a(5H)-yl)methoxy)pyrido[4′,3′:4,5]thieno[2,3-d]pyrimidin-4-yl)-6-methyl-1,4-oxazepan-6-ol], the IC50 came out at 168 nM in assay [1], 71.5 nM in assay [2], 60 nM in assay [3] and 43.9 nM in assay [4].

Regarding `Cc1cc2[nH]ncc2c(-c2nccc3c2sc2nc(OC[C@@]45CCCN4C[C@H](F)C5)nc(N4CCOCC5(CC(=O)N5)C4)c23)c1C(F)(F)F` (stereo partly drawn) [Ex-194, 9-(2-(((2R,7aS)-2-fluoro-tetrahydro-1H-pyrrolizin-7a(5/7)-yl)methoxy)-8-(6-methyl-5-(trifluorometh-yl)-1H-indazol-4-yl)pyrido [4′,3′:4,5]thieno[2,3-d]pyrimidin-4-yl)-6-oxa-1,9-diazaspiro[3.6]decan-2-one], the IC50 in assay [1] stood at 55.1 nM; in assay [2], 167 nM; in assay [3], 61.3 nM; in assay [4], 57.6 nM.

Turning to `CC1CC(F)(F)c2cc3[nH]ncc3c(-c3nccc4c3sc3nc(OC[C@@]56CCCN5C[C@H](F)C6)nc(N5CCOC[C@@](C)(O)C5)c34)c21` (stereo partly drawn) [Ex-101, (6S)-4-(8-(7,7-difluoro-5-methy1-1,5,6,7-tetrahydrocyclopenta[f]in-dazol-4-yl)-2-(((2R,7aS)-2-fluorotetrahydro-1H-pyrrolizin-7a(5H)-yl)methoxy)pyrido[4′,3′:4,5]thi-eno[2,3-d]pyrimidin-4-yl)-6-methyl-1,4-oxazepan-6-ol], the IC50 in assay [1] was 6.44 nM; in assay [2] it was 4 nM; in assay [3] it was 5.16 nM; in assay [4] it was 1.99 nM.

As for `CC1(C)Cc2cc3[nH]ncc3c(-c3nccc4c3sc3nc(OC[C@@]56CCCN5C[C@H](F)C6)nc(N5CCOC[C@@](C)(O)C5)c34)c2C1` [Ex-112, (6S)-4-(8-(6,6-dimethyl-1,5,6,7-tetrahydrocyclopenta[f]in-dazol-4-yl)-2-(((2R,7aS)-2-fluorotetrahydro-1H-pyrrolizin-7a(5H)-yl)methoxy)pyrido[4′,3′:4,5]thi-eno[2,3-d]pyrimidin-4-yl)-6-methyl-1,4-oxazepan-6-ol], the IC50 was found to be 518 nM in assay [1], 473 nM in assay [2], 402 nM in assay [3] and 274 nM in assay [4].

In the case of `C[C@@H]1C[C@@H]1c1c(Cl)cc2[nH]ncc2c1-c1nccc2c1sc1nc(OC[C@@]34CCCN3C[C@H](F)C4)nc(N3CCOC[C@@](C)(O)C3)c12` (atropisomer, axis not shown; (aS)) [Ex-68, (S)-4-((R)-8-(6-chloro-5-((1S,2R)-2-methylcyclopropyl)-1H-indazol-4-yl)-2-(((2R,7aS)-2-fluorotetrahydro-1H-pyrrolizin-7a(5H)-yl)methoxy)pyrido[4′,3′:4,5]thi-eno[2,3-d]pyrimidin-4-yl)-6-methyl-1,4-oxazepan-6-ol], the IC50 in assay [1] turned out to be 39 nM; in assay [2] it was 57.3 nM; in assay [3], 97.2 nM; in assay [4] it was 21.9 nM.

For `COC1c2c(cc3[nH]ncc3c2-c2nccc3c2sc2nc(OC[C@@]45CCCN4C[C@H](F)C5)nc(N4CCOC[C@@](C)(O)C4)c23)CC1(F)F` (stereo partly drawn) [Ex-110, (6S)-4-(8-(6,6-difluoro-5-methoxy-1,5,6,7-tetrahydrocyclopenta[f]in-dazol-4-yl)-2-(((2R,7aS)-2-fluorotetrahydro-1H-pyrrolizin-7a(5H)-yl)methoxy)pyrido[4′,3′:4,5]thi-no[2,3-d]pyrimidin-4-yl)-6-methyl-1,4-oxazepan-6-ol], the IC50 in assay [1] was 57.7 nM; in assay [2], 47.5 nM; in assay [3] it was 43 nM; in assay [4] it was 37.7 nM.

On to `Cc1cc2[nH]ncc2c(-c2nccn3c2c(F)c2nc(OC[C@@]45CCCN4C[C@H](F)C5)nc(N4CCOC[C@@](C)(O)C4)c23)c1C1CC1` [Ex-306, (S)-4-(9-(5-cyclopropy1-6-methyl-1H-indazol-4-yl)-10-fluoro-2-(((2R,7aS)-2-fluorotetrahydro-1H-pyrrolizin-7a(5H)-yl)methoxy)pyrazino[1′2′:1,5]pyrrolo[3,2-d]pyrimidin-4-yl)-6-methyl-1,4-oxazepan-6-o1], for which the IC50 came to 10.8 nM in assay [1], 16.6 nM in assay [2], 18.9 nM in assay [3] and 4.7 nM in assay [4].

As for `CC1(F)c2c(cc3[nH]ncc3c2-c2nccc3c2sc2nc(OC[C@@]45CCCN4C[C@H](F)C5)nc(N4CCOC[C@@](C)(O)C4)c23)CC1(F)F` (single isomer, unassigned) [Ex-99], the IC50 was 52.4 nM in assay [1], 56.5 nM in assay [2], 65.6 nM in assay [3] and 27.3 nM in assay [4].

Consider `CC(=O)N1CC(Nc2nc(OC[C@@]34CCCN3C[C@H](F)C4)nc3sc4c(-c5c(C(F)(F)F)c(C)cc6[nH]ncc56)nccc4c23)C1` [Ex-190, 1-(3-((2-(((2R,7aS)-2-fluorotetrahydro-1H-pyr-rolizin-7a(5H)-yl)meth-oxy)-8-(6-methyl-5-(tri-fluoromethyl)-1H-indazol-4-yl)pyrido[4′,3′:4,5]thieno[2,3-d]pyrimidin-4-yl)amino)azetidin-1-yl)-ethan-1-one], for which the IC50 in assay [1] is 340 nM; in assay [2], 432 nM; in assay [3] it was 490 nM; in assay [4] it was 438 nM.

Turning to `C[C@@]1(O)COCCN(c2nc(OC[C@@]34CCCN3C[C@H](F)C4)nc3sc4c(-c5c(C6(F)CC6)c(C6CC6)cc6[nH]ncc56)nccc4c23)C1` [Ex-57, (6S)-4-(8-(6-cyclopropyl-5-(1-fluorocyclopropyl)-1H-indazol-4-yl)-2-(((2R,7aS)-2-fluorotetrahydro-1H-pyrrolizin-7a(5H)-yl)methoxy)pyrido[4′,3′: 4,5]thieno[2,3-d]pyrimidin-4-yl)-6-methyl-1,4-oxazepan-6-ol], the IC50 in assay [1] is 62.5 nM; in assay [2], 29.3 nM; in assay [3], 41.3 nM; in assay [4] it was 26.9 nM.

Take `C[C@@]1(O)COCCN(c2nc(OC[C@@]34CCCN3C[C@H](F)C4)nc3sc4c(-c5c6c(cc7[nH]ncc57)CCC6)nccc4c23)C1` [Ex-111, (6S)-4-(2-(((2R,7aS)-2-fluorotetrahydro-1H-pyrrolizin-7a(5H)-yl)methoxy)-8-(1,5,6,7-tetrahydrocyclopenta[f]in-dazol-4-yl)pyrido[4′,3′:4,5]thieno [2,3-d]pyrimidin-4-yl)-6-methyl-1,4-oxazepan-6-ol]: the IC50 in assay [1] turned out to be 44.4 nM; in assay [2] it was 34.1 nM; in assay [3], 38.1 nM; in assay [4], 18.7 nM.

For the compound `C[C@@]1(O)COCCN(c2nc(OC[C@@]34CCCN3C[C@H](F)C4)nc3sc4c(-c5c(C6=CCOC6)c(Cl)cc6[nH]ncc56)nccc4c23)C1` [Ex-74, (6S)-4-(8-(6-chloro-5-(2,5-dihydrofuran-3-yl)-1H-indazol-4-yl)-2-(((2R,7aS)-2-fluorotetrahydro-1H-pyrrolizin-7a(5H)-yl)methoxy)pyrido[4′,3′:4,5]thi-eno[2,3-d]pyrimidin-4-yl)-6-methyl-1,4-oxazepan-6-ol], the IC50 in assay [1] came to 819 nM; in assay [2] it was 933 nM; in assay [3], 1260 nM; in assay [4], 438 nM.

As to `Cc1cc2[nH]ncc2c(-c2nccc3c2sc2nc(OC[C@@]45CCCN4C[C@H](F)C5)nc(N4CCOC[C@@](C)(O)C4)c23)c1C(C)C` [Ex-137, (6S)-4-(2-(((2R, 7aS)-2-fluorotetra-hydro-1H-pyrrol-izin-7a(5H)-yl)meth-oxy)-8-(5-isopropyl-6-methyl-1H-ind-azol-4-yl)pyrido [4′,3′:4,5]thieno[2,3-d]pyrimidin-4-yl)-6-methyl-1,4-oxaze-pan-6-ol], the concentration for half-maximal inhibition (IC50) is 40.1 nM in assay [1], 58 nM in assay [2], 66.7 nM in assay [3] and 32.6 nM in assay [4].

The record behind these values is US20260176289A1, “SMALL MOLECULE INHIBITORS OF KRAS PROTEINS” (Merck Sharp & Dohme LLC, priority 2022, published 2026).
